PubChem BioAssay AID1902 (Broad Institute, 2009)
Active and inactive are the calls of the source.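 The calls were made as follows: active = EC50 no more than a set limit of log units above the highest dose; inactive = the rest.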

Target: S. pyogenes SKKanGAS, kanamycin survival, BacTiterGlo, 6 h
Assay: S. pyogenes SKKanGAS kanamycin growth inhibitors – SKKanGAS strain, luminescence, dose confirmation, streptokinase promoter inhibitor project, dose response (AID 1902);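 also: lower survival reflects blocked streptokinase promoter driving kanamycin resistance gene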

Compound | EC50
CNC(=S)N1CCN(c2c(F)cc3c(=O)c(C(=O)O)cn(C4CC4)c3c2OC)CC1C (stereo not drawn) | 0.16 µM
Nc1c(C(=O)OCc2ccccc2)c2nc3ccccc3nc2n1Cc1cccs1 | 5.04 µM
CCN(CC)c1ccc(-n2cc3c(=O)n(C)c(=O)n(C)c3c2)cc1 | 3.43 µM
O=C(NC(NC(=S)Nc1ccc(Cl)cc1Cl)C(Cl)(Cl)Cl)c1cccc([N+](=O)[O-])c1 (stereo not drawn) | 0.99 µM
CN1CCN(C2=Cc3ccc(Cl)cc3Sc3ccc(F)cc32)CC1 | 4.61 µM
O=C(NNC1=C(C(=O)C(F)(F)F)CCC1)c1ccccc1O | 0.724 µM
Cc1ccccc1-c1cc(-c2ccccc2O)n[nH]1 | 12.3 µM
N#CCSc1nc2ccc(N3CCOCC3)cc2c(=O)n1CCc1ccccc1 | 3.71 µM
CCCCc1nc(N2CCN(C(=O)c3ccco3)CC2)c(C#N)c2c1CCCC2 | 6.45 µM
CCC[C@@H]1C[C@@]1(CCC)[C@@H](NP(=O)(c1ccccc1)c1ccccc1)c1ccc(C(=O)OC)cc1 | 2.14 µM
COc1ccc(C(=O)CSc2nc(-c3ccccn3)nc(C)c2Cl)cc1 | 1.4 µM
O=C(NCc1ccc2c(c1)OCO2)Nc1ccc(F)cc1 | > 15 µM (inactive)
CCN(CCn1cccn1)C(=O)CC1C(=O)NCCN1CCc1ccccc1 (stereo not drawn) | > 15 µM (inactive)
CC12CCC(c3c(C(=O)Nc4nccs4)nn(-c4ccccc4)c31)C2(C)C (stereo not drawn) | 3.4 µM
Cc1ccc(C(=O)Nc2nnc(C3=COCCO3)o2)cc1C | 2.96 µM
CCCCNc1c(-c2ccc(SC3CCCCC3)cc2)nc2ccccn12 | 3.87 µM
O=C1/C(=C\c2cccc(O)c2O)SC(=S)N1Cc1ccccc1 | 2.2 µM
Cc1ccc(NC(=O)c2nc[nH]c2C(=O)N[C@@H](CCCCNC(=O)OC(C)(C)C)C(=O)OC(C)(C)C)cc1 | 3.76 µM
CC(C)=CCc1c2c(c(O)c3c(=O)c4c(oc13)-c1cc(O)c(O)cc1OC4C=C(C)C)C=CC(C)(C)O2 (stereo not drawn) | 1.88 µM
CCn1nc(C)cc1-c1nnc(Sc2ncc([N+](=O)[O-])s2)n1C | 6.51 µM
COc1ccc(-c2[nH]ncc2N=Nc2cc(C)cc(C)c2)cc1 | 4.27 µM
COc1ccccc1C(=O)NNC(=S)NC(=O)c1sc2ccccc2c1Cl | < 0.06 µM
COc1ccccc1-c1nnc(Nc2nc3c(OC)cccc3s2)o1 | 0.803 µM
CC(C)Cn1c(O)c(N=NC(=O)c2cccc(S(=O)(=O)N3CCCCC3)c2)c2ccccc21 | 6.04 µM
CCCCCCCCCCCCCCCC[N+](C)(C)C | 3.02 µM
Cc1cccc(C(=O)NC(=S)NNC(=O)c2ccc(Cl)cc2)c1 | 0.187 µM

Compound | EC50
C/C(=N\NC(=O)c1ccc(Cl)cc1)c1ccccn1 | 1.48 µM
COc1ccc(C(=O)c2c(C(F)(F)F)oc3c2C(=O)c2ccccc2C3=O)cc1 | 1.99 µM
N#Cc1c(NC(=S)NC(=O)C2CCCC2)sc2c1CCCCC2 | 6.33 µM
NS(=O)(=O)c1ccc(-c2ccc(/C=C3\SC(=S)N(C4CCS(=O)(=O)C4)C3=O)o2)cc1 (stereo not drawn) | 4.95 µM
CCCc1nnc(NC(=O)c2c(O)c3cccc4c3n(c2=O)CCC4)s1 | 6.91 µM
CCCCOc1ccc(-c2c(C#N)c(N)nc(SCC(N)=O)c2C#N)cc1 | 4.61 µM
O=C(COc1ccc(Cl)cc1Cl)Nc1ccc(-c2ccc(N3CCOCC3)nn2)cc1 | > 15 µM (inactive)
O=c1cc(/N=C/c2coc3c(ccc4ccccc43)c2=O)[nH]c(=S)[nH]1 | 1.53 µM
Cc1cc(C(F)F)nn1CC(=O)NC1C(=O)N2C(C(=O)O)=C(CSc3nnnn3C)CSC12 (stereo not drawn) | < 0.06 µM
CCn1c(COc2ccc(C)cc2)nnc1SCc1ccc(C#N)cc1 | > 15 µM (inactive)
CCc1cccc2c(C(=O)COC(=O)/C=C/c3ccc(O)c(OC)c3)c[nH]c12 | 7.63 µM
O=C(COn1nnc2ccc(C(F)(F)F)cc21)Nc1nnc(-c2ccccc2)o1 | 2.51 µM
Cc1cccc(Oc2nc(-c3ccncc3)nc3ccccc23)c1 | 8.04 µM
Cc1cccc(/C=c2\s/c(=C\C(=O)C(C)(C)C)[nH]c2=O)c1 | 2.34 µM
CC(C)Nc1cc(C(C)(C)C)nc2c(-c3ccccc3)cnn12 | 4.42 µM
CC[n+]1c(/C=C2\Sc3ccccc3N2C)ccc2cccc(C)c21 | 3.84 µM
CC(C)CC(=O)Nc1ccc(C(=O)NNC(=S)NC(=O)C2CCCCC2)cc1 | 1 µM
CCOC(=O)C1=C(N)Oc2ccc3ccccc3c2C1c1ccc(O)cc1 (stereo not drawn) | 5.68 µM
O=C1c2ccccc2C(=O)c2c1oc(C(F)(F)F)c2C(=O)c1ccccc1 | 1.82 µM
O=C(N/N=C/c1c(O)ccc2ccccc12)Nc1ccccc1 | 7.74 µM
CCOC(=O)C(C(=O)OCC)c1cc(Br)c2noc3c2c1C(=O)c1ccccc1-3 | 3.7 µM
C/C(=N\Nc1cc(C)nc(-c2ccccc2O)n1)c1ccccc1O | 5.37 µM
CC(C)(C)c1ccc(Cn2ccc(-c3ccc4c(c3)OCO4)n2)cc1 | 7.09 µM
COc1cc(NS(=O)(=O)c2ccc(C)cc2)c2ncccc2c1 | 0.777 µM
CC1(C)N=C(N)N=C(N)N1c1ccc(Oc2ccc(Cl)cc2)c(Cl)c1 | < 0.06 µM
O=C(NC(=S)NNC(=O)c1ccco1)c1ccc(Br)cc1 | 0.772 µM

Compound | EC50
Cc1ccc(/C=C2/Sc3ccc(C(=O)N4CCN(c5ccccn5)CC4)cc3NC2=O)cc1 | 1.91 µM
O=[N+]([O-])c1cc(Br)c(O)c(/C=N/Nc2nnnn2-c2cccc3ccccc23)c1 | 5.44 µM
COc1ccc(C(=O)c2coc3c2C(=O)C(=O)c2ccccc2-3)cc1 | 5.65 µM
Cc1ccc2nc(N3C(=O)C(O)=C(C(=O)c4ccco4)C3c3cccs3)sc2c1 (stereo not drawn) | 2.1 µM
CCS(=O)(=O)c1nc(S(=O)(=O)c2ccc(C)cc2)c(NCCN2CCOCC2)s1 | > 15 µM (inactive)
Cc1ccc(Sc2cc(C)nc(-c3ccccn3)n2)cc1 | 12.4 µM
C=CC1=C(C(=O)O)N2C(=O)C(NC(=O)Cc3ccccc3)C2SC1 (stereo not drawn) | 0.13 µM
CCOC(=O)c1ccc(NC2=CC(=O)C(=O)c3ccccc32)cc1 | 3.48 µM
Cc1cc(NC(c2ccc(Cl)cc2)c2ccc3cccnc3c2O)no1 (stereo not drawn) | 0.602 µM
COc1cc(/C=N/Nc2nc3ccccc3s2)cc([N+](=O)[O-])c1O | 8.93 µM
CCCN(CC(=O)Nc1cc(Cl)cc(Cl)c1)CC(=O)Nc1ccc(F)c(F)c1F | 4.87 µM
O=C(NNC(=O)c1cc(-c2ccc(Cl)c(Cl)c2)nc2ccccc12)Nc1ccccc1 | 4.83 µM
Cc1ccc(Nc2nc(N/N=C\c3ccc4c(c3)OCO4)nc(N3CCOCC3)n2)cc1 | 4.5 µM
COc1cccc(-c2nnc(Nc3nc4c(F)cccc4s3)o2)c1 | 0.502 µM
COc1ccc(C(=O)NCC(=O)OCCCOC(=O)CNC(=O)c2ccc(OC)c(OC)c2)cc1OC | > 15 µM (inactive)
COc1ccccc1-c1cc(=O)c2c(O)ccc([N+](=O)[O-])c2o1 | 2.56 µM
Cc1cc(C)c2nc(NNC(=O)c3cc(=O)c4ccccc4o3)sc2c1 | 0.165 µM
COC(=O)c1c(NC(=O)c2ccn(C)n2)sc2c1CCC2 | > 15 µM (inactive)
Cc1[nH]n(-c2cccc3ccccc23)c(=O)c1/C=N/NC(=O)c1cccc([N+](=O)[O-])c1 | 2.47 µM
CCC1CCCCN1S(=O)(=O)c1ccc(C(=O)Nc2nnc(C3CC3)o2)cc1 (stereo not drawn) | 2.23 µM
COc1ccc([N+](=O)[O-])cc1NC(=S)NC(NC(=O)C(c1ccccc1)c1ccccc1)C(Cl)(Cl)Cl (stereo not drawn) | 12 µM
CC1CCCC(C)N1c1nnc(NC(=O)c2cc(-c3ccc(Br)cc3)on2)s1 (stereo not drawn) | 2.79 µM
COc1ccc2[nH]c3c(=O)n(/N=C/c4ccc(OC)c(CN5CCCC5)c4)c(C)nc3c2c1 | 7.06 µM
Cc1noc(C)c1S(=O)(=O)N(CCc1ccccc1)Cc1ccccc1 | 5.83 µM
CCn1cc(Cl)c(C(=O)N2N=C(c3ccc4ccccc4c3)CC2c2ccccc2O)n1 (stereo not drawn) | 6.13 µM
Cc1cc(NC(=O)c2sccc2C)n(-c2nc3ccccc3[nH]2)n1 | 2.81 µM

Compound | EC50
Oc1ccc(N=Nc2ccc3c(c2)OCCO3)c2ncccc12 | 0.419 µM
Cn1ncc2c(Nc3ccc(Br)cc3)nc(Nc3ccc(Br)cc3)nc21 | 1.08 µM
COc1ccc(C(=O)NC(=S)NNC(=O)[C@H]2C[C@@H]2c2ccccc2)cc1OC | 0.914 µM
COc1ccc(/C=C/C(=O)NC(=S)NNC(=O)c2ccco2)cc1OC | 4.08 µM
COc1cc(/C=C2/SC(=S)N(Cc3ccccc3)C2=O)ccc1O | 5.8 µM
O=C(N/N=C/c1cc([N+](=O)[O-])ccc1O)/C(=C\c1cccs1)NC(=O)c1ccccc1 | 1.81 µM
CC1=C(C(=O)Nc2ccc([N+](=O)[O-])cc2)C(c2cccc(C(F)(F)F)c2)NC(=S)N1c1ccccc1 (stereo not drawn) | 4.02 µM
CC(=O)N(C)c1ccc(OCC(O)Cn2c3ccc(Cl)cc3c3cc(Cl)ccc32)cc1 (stereo not drawn) | 3.35 µM
CCN1/C(=C/c2ccc3cc(C)ccc3[n+]2CC)Sc2ccc3sccc3c21 | 2.34 µM
Clc1ccc(/C=N/NC(=Nc2ccccc2)c2ccccn2)c(Cl)c1 | 13.5 µM
COC(=O)c1ccc(N2CCN(C)CC2)c(NC(=O)COc2ccc(C)cc2)c1 | > 15 µM (inactive)
CCCCC(=O)NNC(=S)NC(=O)C(c1ccccc1)c1ccccc1 | 0.188 µM
Cc1csc(Nc2ccc(Cl)cc2)[n+]1-c1ccc(Cl)cc1 | 11.1 µM
COC12C(COC(N)=O)C3=C(C(=O)C(C)=C(N)C3=O)N1CC1C2N1C (stereo not drawn) | < 0.06 µM
CN1CCN(C(c2ccc(C(F)(F)F)cc2)c2cc(Cl)c3cccnc3c2O)CC1 (stereo not drawn) | 0.682 µM
CCOC(=O)c1c(NC(=O)c2c(N)n(CCCOC)c3nc4ccccc4nc23)sc2c1CCCC2 | 8.85 µM
O=C(CCC(=O)Nc1cc(C(F)(F)F)ccc1Cl)N/N=C\c1cc([N+](=O)[O-])ccc1O | 0.658 µM
CNc1ccc2oc(C[C@H]3O[C@@]4(CC[C@H]3C)O[C@H]([C@H](C)C(=O)c3ccc[nH]3)[C@H](C)C[C@H]4C)nc2c1C(=O)O | < 0.06 µM
Cc1ccc(C)c(C(=O)COC(=O)c2cc(Cl)nc3ccccc23)c1 | 10.9 µM
CCOC(=O)CCC(=O)O[C@H]1[C@H](O[C@@H]2[C@@H](C)[C@H](O[C@H]3C[C@@](C)(OC)[C@@H](O)[C@H](C)O3)[C@@H](C)C(=O)O[C@H](CC)[C@@](C)(O)[C@H](O)[C@@H](C)C(=O)[C@H](C)C[C@@]2(C)O)O[C@H](C)C[C@@H]1N(C)C | < 0.06 µM
NC(N)=N/N=C/c1ccc(OCc2ccccc2)c(OCc2ccccc2)c1 | 6.82 µM
COc1cccc(C(=O)Nc2nc(-c3ccccc3)c(-c3ccccc3)o2)c1 | 0.881 µM
CCC(C)Sc1cc(-c2nc3ccccn3c2NC2CCCCC2)ccc1OC (stereo not drawn) | 2.94 µM
CC(C)(C)c1ccc(C(=O)CC(=O)c2cc(Cl)ccc2O)cc1 | 0.349 µM
Cc1ccc(OCC(=O)NNC(=S)NC(=O)c2ccc(Br)o2)c(C)c1 | < 0.06 µM
